System: α7 integrin promoter
Test: muscle cell-based assay: α7βgal+/− myoblasts/myotubes, LacZ reporter, β-galactosidase cleavage of FDG
Parameters: species or system mouse; Results in α7+/− β-galactosidase assay: scale not given here
How it was run: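 Fluorescein generated from FDG by β-galactosidase reports α7 integrin promoter activity in differentiated myoblasts from α7+/− LacZ knock-in pups. Screening hits then went to dose-response, western blotting and a myostatin counterscreen.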

Row | SMILES | Results in α7+/− β-galactosidase assay (Myotubes, 0.5 uM) | Results in α7+/− β-galactosidase assay (Myotubes, 1 uM) | Results in α7+/− β-galactosidase assay (Myotubes, 5 uM) | Results in α7+/− β-galactosidase assay (Myotubes, 10 uM) | Results in α7+/− β-galactosidase assay (Myotubes, 20 uM) | Results in α7+/− β-galactosidase assay (Myotubes, 40 uM) | Results in α7+/− β-galactosidase assay (Myoblasts, 0.5 uM) | Results in α7+/− β-galactosidase assay (Myoblasts, 1 uM) | Results in α7+/− β-galactosidase assay (Myoblasts, 5 uM) | Results in α7+/− β-galactosidase assay (Myoblasts, 10 uM) | Results in α7+/− β-galactosidase assay (Myoblasts, 20 uM) | Results in α7+/− β-galactosidase assay (Myoblasts, 40 uM)
1 | CCN(CC)CCNC(=O)c1c(C)[nH]c(CC2C(=O)Nc3ccc(F)cc32)c1C (stereo not drawn) [drawing 515] | −0.04962 | −0.02655 | −0.4387 | −1.86 | −0.9178 | 0.9191 | – | – | – | – | – | –
2 | Cc1[nH]c(/C=C2\C(=O)Nc3ccc([S+](=O)([O-])Cc4c(Cl)cccc4Cl)cc32)c(C)c1C(=O)C1CCCN1CN1CCCC1 (stereo not drawn) [drawing 517] | −0.02882 | −0.08557 | 0.02824 | −0.2838 | −0.348 | −0.7868 | – | – | – | – | – | –
3 | O=C1Nc2ccccc2/C1=C1/Nc2ccccc2/C1=N\O [drawing 518] | 0.09617 | 0.05181 | −0.32 | −0.625 | −0.3346 | −0.5024 | – | – | – | – | – | –
4 | O=C(CNC(=O)c1cccc(F)c1)N/N=C/c1cc(Br)ccc1OCc1ccccc1 [drawing 519] | – | – | – | – | – | – | −0.00993 | 0.03356 | 0.1316 | 0.088 | −0.1376 | 0.1351
5 | Cc1ccccc1-n1c(S)nnc1Cc1cccs1 [drawing 520] | – | – | – | – | – | – | 0.09422 | 0.03188 | 0.1364 | 0.3732 | 0.1056 | 0.01115
6 | CCCCN(CC)Cc1ccc(C/N=C(\S)Nc2ccccc2F)o1 [drawing 521] | – | – | – | – | – | – | 0.07412 | 0.014 | 0.01263 | 0.224 | −0.04634 | −0.1183
7 | COc1ccc2c(c1)C(=C(C#N)C#N)C(=O)N2CCc1ccccc1 [drawing 522] | – | – | – | – | – | – | 0.199 | 0.06668 | −0.157 | 0.1343 | −0.3414 | −0.3915
8 | Cn1cc(CN(CCO)Cc2cccs2)c(-c2ccccc2F)n1 [drawing 523] | – | – | – | – | – | – | 0.1756 | 0.1912 | −0.02798 | 0.2648 | 0.0346 | −0.1208
9 | CCN1C(=O)/C(=C(/C#N)c2nc3ccccc3[nH]2)c2ccccc21 [drawing 524] | – | – | – | – | – | – | −0.1641 | −0.1562 | −0.1933 | −0.1296 | −0.2594 | −0.241
10 | Cc1ccc2c(c1)/C(=C/c1ccc(F)cc1)C(=O)N2 [drawing 525] | – | – | – | – | – | – | 0.006732 | −0.03019 | −0.1238 | −0.2542 | −0.5127 | −0.7544
